Reference: patent US20110015162A1, “15,16-Methylene-17-hydroxy-19-nor-21-carboxylic acid-steroid Y-lactone derivative, use thereof and medicinal products containing the derivative” (Bayer Schering Pharma Aktiengesellschaft, priority 2007, published 2011)
Where two headings read alike, the source gives them in different places.

Assays:
[1] = molecular target: T1, progesterone receptor (Homo sapiens, UniProt P06401); assay: Progesterone receptor binding test; details: for Progesterone receptor (PR) Competition factor: CF 1 = affinity of progesterone, CF >1 lower affinity, <1 higher affinity; for CF PR/CF MR: ratio of competition factors CF(PR) and CF(MR)
T1 construct: made in house; host or cells: Hi5 insect cells (cytosol)
T1 sequence (P06401 1-933): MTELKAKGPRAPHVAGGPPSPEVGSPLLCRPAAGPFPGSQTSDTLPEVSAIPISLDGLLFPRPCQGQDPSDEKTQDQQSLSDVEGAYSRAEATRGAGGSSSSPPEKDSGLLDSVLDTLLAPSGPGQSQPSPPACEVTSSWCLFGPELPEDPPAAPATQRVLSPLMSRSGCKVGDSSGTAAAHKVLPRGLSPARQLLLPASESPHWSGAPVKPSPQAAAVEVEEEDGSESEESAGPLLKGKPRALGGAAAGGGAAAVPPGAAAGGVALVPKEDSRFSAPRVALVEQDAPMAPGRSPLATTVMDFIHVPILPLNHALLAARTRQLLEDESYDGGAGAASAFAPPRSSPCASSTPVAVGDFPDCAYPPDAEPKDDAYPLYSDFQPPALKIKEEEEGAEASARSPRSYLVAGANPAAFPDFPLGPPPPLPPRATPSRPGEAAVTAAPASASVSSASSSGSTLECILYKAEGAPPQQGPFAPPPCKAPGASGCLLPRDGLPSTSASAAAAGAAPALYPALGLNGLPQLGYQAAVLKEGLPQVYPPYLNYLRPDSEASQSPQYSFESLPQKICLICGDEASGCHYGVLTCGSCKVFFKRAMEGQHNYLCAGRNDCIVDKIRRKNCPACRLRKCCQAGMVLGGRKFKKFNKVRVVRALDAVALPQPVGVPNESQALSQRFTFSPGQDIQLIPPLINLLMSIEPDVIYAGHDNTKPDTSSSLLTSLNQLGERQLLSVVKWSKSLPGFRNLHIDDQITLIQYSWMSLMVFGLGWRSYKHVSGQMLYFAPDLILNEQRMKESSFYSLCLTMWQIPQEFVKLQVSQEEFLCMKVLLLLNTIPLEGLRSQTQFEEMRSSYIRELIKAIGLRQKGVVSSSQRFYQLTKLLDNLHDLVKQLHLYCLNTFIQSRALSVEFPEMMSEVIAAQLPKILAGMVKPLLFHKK
Protocol: 1. Progesterone Receptor Binding Test:
Using cytosol from progesterone receptor-expressing insect cells (Hi5), competitive binding to the progesterone receptor was determined from the ability to displace ^3H-progesterone as reference substance from the receptor.

[2] = molecular target: T2, fusion protein from the PR-ligand-binding domain and a Gal4-transactivation domain (Homo sapiens, UniProt P06401); assay: Progestational action by transactivation test (CHO K1 reporter cells); format: cell-based; details: for Emax: CHO-K1, 16 h, read-out: Progesterone receptor Agonism efficacy
T2 construct: expressed in transfected cells; host or cells: CHO K1 cells, stably transfected
Summary of the method: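 Progestational activity was measured in CHO K1 reporter cells stably expressing a fusion of the progesterone receptor ligand-binding domain with a Gal4-transactivation domain, plus a luciferase reporter under a Gal4-responsive promoter. Cells were plated at 4×10^4 per well in white 96-well plates with 3% DCC-FCS medium. Compounds were added eight hours later for 16 hours in triplicate. Luminescence was read after lysis and addition of luciferase substrate.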

[3] = molecular target: T3, androgen receptor (Homo sapiens, UniProt P10275); assay: Androgenic/antiandrogenic action by transactivation test (PC3 reporter cells); format: cell-based; parameters: expressed in transfected cells; host or cells: PC3 cells
T3 sequence (P10275 1-920): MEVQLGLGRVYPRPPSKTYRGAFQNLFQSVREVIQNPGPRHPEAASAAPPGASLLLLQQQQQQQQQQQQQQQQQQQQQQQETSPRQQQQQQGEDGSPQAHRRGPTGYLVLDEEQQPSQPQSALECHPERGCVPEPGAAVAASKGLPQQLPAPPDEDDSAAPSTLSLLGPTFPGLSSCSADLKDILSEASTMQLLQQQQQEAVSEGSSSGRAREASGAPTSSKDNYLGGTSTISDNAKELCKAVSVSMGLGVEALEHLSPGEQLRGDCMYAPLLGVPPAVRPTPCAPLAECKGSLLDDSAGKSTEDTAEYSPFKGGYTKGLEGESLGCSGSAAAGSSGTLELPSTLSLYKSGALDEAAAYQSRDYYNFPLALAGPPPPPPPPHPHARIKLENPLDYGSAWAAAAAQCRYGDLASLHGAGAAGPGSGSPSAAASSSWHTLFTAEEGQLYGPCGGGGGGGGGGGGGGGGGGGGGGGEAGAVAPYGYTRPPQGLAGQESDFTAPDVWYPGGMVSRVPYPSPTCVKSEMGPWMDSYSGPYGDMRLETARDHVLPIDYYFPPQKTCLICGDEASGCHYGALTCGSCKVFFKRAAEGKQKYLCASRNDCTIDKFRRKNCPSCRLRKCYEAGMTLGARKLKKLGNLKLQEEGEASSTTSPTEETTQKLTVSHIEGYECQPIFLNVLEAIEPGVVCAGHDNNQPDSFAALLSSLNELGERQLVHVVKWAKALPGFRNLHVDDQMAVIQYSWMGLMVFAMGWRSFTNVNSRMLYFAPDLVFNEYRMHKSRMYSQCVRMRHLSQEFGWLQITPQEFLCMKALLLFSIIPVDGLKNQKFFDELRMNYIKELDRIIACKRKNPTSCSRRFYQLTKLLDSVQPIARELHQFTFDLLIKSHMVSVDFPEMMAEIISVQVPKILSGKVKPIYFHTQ
Summary of the method: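 PC3 reporter cells expressing androgen receptor with a steroid hormone-responsive promoter–luciferase construct were exposed to compounds for 16 h in triplicate. For antagonist mode, 0.05 nM R1881 was co-added for near-maximal stimulation. Luminescence was read after lysis and IC50 derived from dose–effect curves.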

[4] = PC-3, read-out: Androgen receptor Agonism efficacy
[5] = PC-3, read-out: Androgen receptor Antagonism efficacy

T2 sequence (P04386 1-147 partner limits assumed, one chain of several): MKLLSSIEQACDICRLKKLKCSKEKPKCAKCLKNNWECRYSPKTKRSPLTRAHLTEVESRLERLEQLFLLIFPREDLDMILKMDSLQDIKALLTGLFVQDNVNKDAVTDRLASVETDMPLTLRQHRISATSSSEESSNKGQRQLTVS

Structure (SMILES)	IC50 [1] [µM]	Progesterone receptor (PR) Competition factor [1]	CF PR/CF MR [1]	EC50 [2] [µM]	Emax [2] [%]	EC50 [3] [µM]	Emax [3, 4] [%]	Emax [3, 5] [%]
C=C[C@@H]1CC2=CC(=O)CC[C@@H]2[C@H]2CC[C@@]3(C)[C@@H]([C@@H]4C[C@@H]4[C@@]34C=CC(=O)O4)[C@@H]21 [Example 25A, 17β-Hydroxy-15β,16β-methylene-7α-vinyl-19-nor-17α-pregna-4,20(Z)-dien-3-one-21-carboxylic acid γ-lactone]	0.15	6.14	0.65	0.56	46.5	0.00183	73.3	5
C[C@]12CC[C@H]3[C@@H](CCC4=C(Cl)C(=O)CC[C@@H]43)[C@@H]1[C@@H]1C[C@@H]1[C@@]21C=CC(=O)O1 [Example 27, 4-Chloro-17β-hydroxy-15β,16β-methylene-19-nor-17α-pregna-4,20(Z)-dien-3-one-21-carboxylic acid γ-lactone]	2.9	101.93	2.17	0.33	49.6	0.0695	66.9	5
